Source: patent US20220273590A1, “COMPOUNDS FOR PREVENTION AND TREATMENT OF POST-OPERATIVE COGNITIVE DYSFUNCTION” (ABREXA PHARMACEUTICALS, INC., priority 2019, published 2022)

Key:
[1] = Plasma levels of J147 at the time of surgery; type: in vivo, Wistar rats; settings: absence of an appropriate peak taken as zero
Method: (§1) Male Wistar rats (˜350 g) were randomly divided into 4 experimental groups; non-surgery; control abdominal surgery; surgery+acute J147 treatment (7 mg/rat by gavage, 4-5 hours before surgery); surgery+chronic J147 (500 mg/kg food, 1 week before surgery until the end of the study). Timed blood samples were collected. Days 9-11 post surgery, general behavior (Open field: OF) and cognitive performance (Novel Object/Novel Location Recognition: NOR/NLR; Morris Water Maze: MWM) were tested. Day 14, rats were sacrificed and blood and brain tissue were collected for further analyses. (Neuro)inflammation was examined by circulating cytokine levels and microglia activation in the brain.
One week before surgery, chronic treatment J147 treatment started and continued until the end of the experiment. The day of surgery, rats for acute treatment received their J147 (4-5 hours before surgery) by gavage, while the designated control rats received vehicle gavage. Rats were subjected to abdominal surgery, and allowed to recover. After that rats were housed individually. […] The first week post-surgery, rats were weighed daily and food intake was measured. […]
For chronic oral treatment, J147 was added to the food (Teklad 2018, Envigo) at a concentration of 500 mg/kg. […] After surgery food intake was measured daily during the last hour of the light phase. […]

animal model of POCD = test: Overall outcome in the animal model of POCD (abdominal surgery); type: in vivo, Wistar rats
Method: as §1, with “In this study, the effects of J147 in an animal model of POCD were investigated. Male” for “Male”, “brain. Within each cohort rats (n=12 per cohort) were equally divided over four experimental groups, including non-surgery, control surgery, surgery+acute J147 and surgery+chronic J147. Half of the non-surgery and control surgery groups received vehicle gavage and served as control for acute treatment. One week before surgery, chronic treatment J147 treatment started and continued until the end of the experiment. […] The first week post-surgery, rats were weighed daily and food intake was measured. […]” for “brain.”

Structure (SMILES): COc1cccc(/C=N/N(C(=O)C(F)(F)F)c2ccc(C)cc2C)c1 [J147]
- mean concentration of J147 in plasma during surgery ([1]; acute J147, 7 mg/rat by gavage 4-5 hours before surgery): 3.103 ng/mL
- concentration at 1 week ([1]; male, Wistar, rat, plasma, oral, chronic J147, 500 mg/kg food from 1 week before surgery, read-out: mean concentration of J147 in plasma during surgery): 0.233 ng/mL
- impaired cognitive aspects after surgery (animal model of POCD; chronic J147 administration): capable of preventing all impaired cognitive aspects after surgery
- conditions after surgery (body weight loss, behavior in the OF) (animal model of POCD; chronic treatment): generally improved conditions after surgery
